# Measurements: patent publication US7109338B2, “1,2-disubstituted 1,4-dihydro-4-oxoquinoline compounds” (priority 1999, dated 2006)
# Like-named read-outs stand apart in the source and are kept apart here.
# Columns and labels:
# HRV41 (56110) = test: Anti-rhinovirus spectrum (MTT), HRV41; assay type: cell-based, human rhinovirus; set-up: Anti-Rhinovirus activity, HRV41: unit not given here
# HRV14 (1059) = test: Anti-rhinovirus activity (MTT), HRV14; assay type: cell-based, human rhinovirus; set-up: Anti-Rhinovirus activity, HRV14: unit not given here
# HRV61 (6669-CV39) = test: Anti-rhinovirus spectrum (MTT), HRV61; assay type: cell-based, human rhinovirus; set-up: Anti-Rhinovirus activity, HRV61: unit not given here
# HRV31 (41F) = test: Anti-rhinovirus spectrum (MTT), HRV31; assay type: cell-based, human rhinovirus; set-up: Anti-Rhinovirus activity, HRV31: unit not given here
# HRV36 (342H) = test: Anti-rhinovirus spectrum (MTT), HRV36; assay type: cell-based, human rhinovirus; set-up: Anti-Rhinovirus activity, HRV36: unit not given here
# HRV21 (47) = test: Anti-rhinovirus spectrum (MTT), HRV21; assay type: cell-based, human rhinovirus; set-up: Anti-Rhinovirus activity, HRV21: unit not given here
# HRV39 (209) = test: Anti-rhinovirus spectrum (MTT), HRV39; assay type: cell-based, human rhinovirus; set-up: Anti-Rhinovirus activity, HRV39: unit not given here
# HRV13 (353) = test: Anti-rhinovirus spectrum (MTT), HRV13; assay type: cell-based, human rhinovirus; set-up: Anti-Rhinovirus activity, HRV13: unit not given here
# [1] = system: human rhinovirus type 1B (HRV 1B, B632); test: Anti-rhinovirus activity (MTT), HRV1B; assay type: cell-based; set-up: Anti-Rhinovirus activity, HRV1B: unit not given here
# HRV10 (204-CV14) = test: Anti-rhinovirus spectrum (MTT), HRV10; assay type: cell-based, human rhinovirus; set-up: Anti-Rhinovirus activity, HRV10: unit not given here
# HRV 89 (41617-Gallo) = test: Anti-rhinovirus activity (MTT), HRV89; assay type: cell-based, human rhinovirus; set-up: Anti-Rhinovirus activity, HRV89: unit not given here
# HeLa cells = test: Cytotoxicity (MTT, without virus), HeLa; settings: HeLa, no virus, incubated for 4 days
# HRV29 (5582) = test: Anti-rhinovirus spectrum (MTT), HRV29; assay type: cell-based, human rhinovirus; set-up: Anti-Rhinovirus activity, HRV29: unit not given here
# HRV8(MRH) = test: Anti-rhinovirus spectrum (MTT), HRV8; assay type: cell-based, human rhinovirus; set-up: Anti-Rhinovirus activity, HRV8: unit not given here
# [2] = system: echovirus type 11 (Echo 11, Gregory); test: In vitro anti-picornavirus activity (MTT), Echo 11; assay type: cell-based; settings: HeLa-S3 cells, MTT method, 37° C.
# [3] = system: Human rotavirus (HROV, Odelia); test: In vitro anti-rotavirus activity (plaque reduction), HRoV; assay type: cell-based; settings: MA104 cells, four days after infection
# Protocol: (§1) Human rotavirus (HROV, Odelia) and simian rotavirus (SRoV, SA11) were used in this experiment. Confluent monolayers of MA104 cells in 6-well multiplate were washed with Eagle MEM containing 0.5 μg/ml of trypsin and were infected with tripsinized-rotavirus (treated with 10 μg/ml of tripsin at 37° C. for 1.5 hr) at 50 PFU per well. After 1 hr of adsorption, the virus inoculum was removed, and the monolayers were washed with Eagle MEM containing 0.5 μg/ml of trypsin and overlaid with Eagle MEM containing 1 μg/ml of trypsin, 0.6% purified agar and the test compounds at various concentrations. The cultures were incubated at 37° C. for 3 days and same overlay medium was added. Four days after infection, the cell sheets were washed with PBS and stained with 1.3% crystal violet in 95% ethanol. The antiviral efficacy of the compounds was expressed as the IC50, that is the concentration of the compounds required to reduce the number of plaques to 50% in the control (virus-infected, but […]).
# [4] = system: clinical isolate (89229T); test: microbe, parasite or virus in culture; assay type: cell-based, human rhinovirus; set-up: Anti-Rhinovirus activity, Clinical isolated strain: unit not given here
# [5] = system: coxsackievirus type B4 (CB4,JVB); test: In vitro anti-picornavirus activity (MTT), CB4; assay type: cell-based; settings: HeLa cells, MTT method, 37° C.
# [6] = system: Poliovirus type 1 (Polio 1, Sabin); test: microbe, parasite or virus in culture; assay type: cell-based
# HeLa-S3 cells = test: Cytotoxicity (MTT, without virus), HeLa-S3; settings: HeLa-S3, no virus, incubated for 4 days
# HRV32 (363) = test: Anti-rhinovirus spectrum (MTT), HRV32; assay type: cell-based, human rhinovirus; set-up: Anti-Rhinovirus activity, HRV32: unit not given here
# HRV 2 (HGP) = test: Anti-rhinovirus activity (MTT), HRV2; assay type: cell-based, human rhinovirus; set-up: Anti-Rhinovirus activity, HRV2: unit not given here
# HRV1A (E28) = test: Anti-rhinovirus activity (MTT), HRV1A; assay type: cell-based, human rhinovirus; set-up: Anti-Rhinovirus activity, HRV1A: unit not given here
# HRV3(FEB) = test: Anti-rhinovirus spectrum (MTT), HRV3; assay type: cell-based, human rhinovirus; set-up: Anti-Rhinovirus activity, HRV3: unit not given here
# HRV16 (11757) = test: Anti-rhinovirus spectrum (MTT), HRV16; assay type: cell-based, human rhinovirus; set-up: Anti-Rhinovirus activity, HRV16: unit not given here
# [7] = system: simian rotavirus (SRoV, SA11); test: In vitro anti-rotavirus activity (plaque reduction), SRoV; assay type: cell-based; settings: MA104 cells, four days after infection
# Protocol: as §1
# [8] = system: coxsackievirus type A7 (CA7); test: In vitro anti-picornavirus activity (MTT), CA7; assay type: cell-based; settings: HeLa-S3 cells, MTT method, 37° C.
# HRV5 = test: Anti-rhinovirus spectrum (MTT), HRV5; assay type: cell-based, human rhinovirus; set-up: Anti-Rhinovirus activity, HRV5: unit not given here
# HRV33 (1200) = test: Anti-rhinovirus spectrum (MTT), HRV33; assay type: cell-based, human rhinovirus; set-up: Anti-Rhinovirus activity, HRV33: unit not given here
# HeLa (Ohio strain)cells = test: Cytotoxicity (MTT, without virus), HeLa(Ohio); settings: HeLa(Ohio), no virus, incubated for 4 days
# HRV50(A2#58) = test: Anti-rhinovirus spectrum (MTT), HRV50; assay type: cell-based, human rhinovirus; set-up: Anti-Rhinovirus activity, HRV50: unit not given here
# [9] = Cytotoxicity (MTT, without virus), HeLa; settings: human, HeLa cells (uninfected)
# [10] = Cytotoxicity (MTT, without virus), HeLa-S3; settings: human, HeLa-S3 cells (uninfected)
# [11] = Cytotoxicity (MTT, without virus), HeLa(Ohio); settings: human, HeLa (Ohio strain) cells (uninfected)
# [12] = HeLa (Ohio strain) cells, MTT method, 33° C.
structure (smiles),measurement,setting,value
"CCc1ccc2c(c1)Cc1c-2n(CC)c2ccc(C(C)C)cc2c1=O [Compound B9, 2.5-Diethyl-8-isopropyl-5,10-dihydro-11H-indeno[1,2-b]quinolin-10-one]","Anti-Rhinovirus activity, HRV41",HRV41 (56110); HRV41,0.13
same,"Anti-Rhinovirus activity, HRV14",HRV14 (1059); HRV14,0.58
same,IC50 HRV 14,HRV14 (1059); [12],0.58 µg/mL
same,"Anti-Rhinovirus activity, HRV61",HRV61 (6669-CV39); HRV61,0.16
same,"Anti-Rhinovirus activity, HRV31",HRV31 (41F); HRV31,0.15
same,"Anti-Rhinovirus activity, HRV36",HRV36 (342H); HRV36,0.16
same,"Anti-Rhinovirus activity, HRV21",HRV21 (47); HRV21,0.16
same,"Anti-Rhinovirus activity, HRV39",HRV39 (209); HRV39,0.20
same,"Anti-Rhinovirus activity, HRV13",HRV13 (353); HRV13,0.14
same,"Anti-Rhinovirus activity, HRV1B",[1]; HRV1B,0.25
same,IC50 HRV1B,[1]; [12],0.25 µg/mL
same,"Anti-Rhinovirus activity, HRV10",HRV10 (204-CV14); HRV10,0.47
same,"Anti-Rhinovirus activity, HRV89",HRV 89 (41617-Gallo); HRV89,0.21
same,IC50 HRV89,HRV 89 (41617-Gallo); [12],0.21 µg/mL
same,Cytotoxicity CC50 HeLa,HeLa cells,>1 µg/mL
same,"Anti-Rhinovirus activity, HRV29",HRV29 (5582); HRV29,0.19
same,"Anti-Rhinovirus activity, HRV8",HRV8(MRH); HRV8,0.15
same,IC50 Echo 11,[2],0.18 µg/mL
same,Anti-rotavirus activity IC50 HRoV(Odelia),[3],0.56 µg/mL
same,"Anti-Rhinovirus activity, Clinical isolated strain",[4]; Clinical isolated strain,0.31
same,IC50 CB4,[5],0.56 µg/mL
same,IC50 Polio 1,[6],0.18 µg/mL
same,Cytotoxicity CC50 HeLa-S3,HeLa-S3 cells,>1 µg/mL
same,"Anti-Rhinovirus activity, HRV32",HRV32 (363); HRV32,0.13
same,"Anti-Rhinovirus activity, HRV2",HRV 2 (HGP); HRV2,0.20
same,IC50 HRV2,HRV 2 (HGP); [12],0.20 µg/mL
same,"Anti-Rhinovirus activity, HRV1A",HRV1A (E28); HRV1A,>1.0
same,IC50 HRV 1A,HRV1A (E28); [12],>1 µg/mL
same,"Anti-Rhinovirus activity, HRV3",HRV3(FEB); HRV3,0.23
same,"Anti-Rhinovirus activity, HRV16",HRV16 (11757); HRV16,0.47
same,Anti-rotavirus activity IC50 SRoV(SA11),[7],0.59 µg/mL
same,IC50 CA7,[8],0.71 µg/mL
same,"Anti-Rhinovirus activity, HRV5",HRV5; HRV5,0.17
same,"Anti-Rhinovirus activity, HRV33",HRV33 (1200); HRV33,0.094
same,Cytotoxicity CC50 HeLa(Ohio),HeLa (Ohio strain)cells,>1 µg/mL
same,"Anti-Rhinovirus activity, HRV50",HRV50(A2#58); HRV50,0.13
"Cc1c(-c2ccccc2)n(-c2ccccc2)c2ccc(C(C)C)cc2c1=O [Compound A320, 1,2-Diphenyl-3-methyl-6-isopropyl-1,4-dihydro-4-oxoquinoline]",IC50,"HRV41 (56110); Enterovirus, Table VII, rhinovirus serotype HRV41",0.066 µg/mL
same,IC50,"HRV14 (1059); Enterovirus, Table VII, rhinovirus serotype HRV14, read-out: Anti-rhinovirus activity HRV14",> 5 µg/mL
same,IC50,"HRV61 (6669-CV39); Enterovirus, Table VII, rhinovirus serotype HRV61",0.21 µg/mL
same,IC50,"HRV31 (41F); Enterovirus, Table VII, rhinovirus serotype HRV31",0.046 µg/mL
same,IC50,"HRV36 (342H); Enterovirus, Table VII, rhinovirus serotype HRV36",0.082 µg/mL
same,IC50,"HRV21 (47); Enterovirus, Table VII, rhinovirus serotype HRV21",0.024 µg/mL
same,IC50,"HRV39 (209); Enterovirus, Table VII, rhinovirus serotype HRV39",< 0.017 µg/mL
same,IC50,"HRV13 (353); Enterovirus, Table VII, rhinovirus serotype HRV13",0.23 µg/mL
same,IC50,"[1]; Human rhinovirus sp., HRV1B, HeLa (Ohio strain) cells, MTT method, 33° C., read-out: IC50 HRV1B",0.12 µg/mL
same,IC50,"[1]; Table VII, rhinovirus serotype HRV1B, read-out: Anti-rhinovirus activity HRV1B",0.12 µg/mL
same,IC50,"HRV10 (204-CV14); Enterovirus, Table VII, rhinovirus serotype HRV10",0.021 µg/mL
same,IC50,"HRV 89 (41617-Gallo); Enterovirus, Table VII, rhinovirus serotype HRV89, read-out: Anti-rhinovirus activity HRV89",0.051 µg/mL
same,IC50,"HRV 89 (41617-Gallo); Human rhinovirus sp., HRV89, HeLa (Ohio strain) cells, MTT method, 33° C., read-out: IC50 HRV89",0.051 µg/mL
same,CC50 at 4 days,[9],> 5 µg/mL
same,IC50,"HRV29 (5582); Enterovirus, Table VII, rhinovirus serotype HRV29",0.079 µg/mL
same,IC50,"HRV8(MRH); Enterovirus, Table VII, rhinovirus serotype HRV8",> 5 µg/mL
same,IC50,[2]; Enterovirus B,0.15 µg/mL
same,IC50,"[4]; Human rhinovirus sp., Table VII, clinical isolate (89229T), read-out: Anti-rhinovirus activity Clinically isolated strain",0.017 µg/mL
same,melting point,,225 °C
same,IC50,[5]; Coxsackievirus,> 5 µg/mL
same,IC50,"[6]; Enterovirus C, HeLa S3, read-out: IC50 Polio 1",> 5 µg/mL
same,CC50 at 4 days,[10],> 5 µg/mL
same,IC50,"HRV32 (363); Enterovirus, Table VII, rhinovirus serotype HRV32",0.051 µg/mL
same,IC50,"HRV 2 (HGP); Enterovirus, Table VII, rhinovirus serotype HRV2, read-out: Anti-rhinovirus activity HRV2",0.051 µg/mL
same,IC50,"HRV 2 (HGP); Human rhinovirus sp., HRV2, HeLa (Ohio strain) cells, MTT method, 33° C., read-out: IC50 HRV2",0.051 µg/mL
same,IC50,"HRV1A (E28); Enterovirus, HRV1A, read-out: Anti-rhinovirus activity HRV1A",> 5 µg/mL
same,IC50,"HRV3(FEB); Enterovirus, Table VII, rhinovirus serotype HRV3",> 5 µg/mL
same,IC50,"HRV16 (11757); Enterovirus, Table VII, rhinovirus serotype HRV16",0.023 µg/mL
same,IC50,[8]; Coxsackievirus,> 5 µg/mL
same,IC50,"HRV5; Enterovirus, Table VII, rhinovirus serotype HRV5",> 5 µg/mL
same,IC50,"HRV33 (1200); Enterovirus, Table VII, rhinovirus serotype HRV33",0.23 µg/mL
same,CC50 at 4 days,[11],> 5 µg/mL
same,IC50,"HRV50(A2#58); Enterovirus, HRV50, read-out: Anti-rhinovirus activity HRV50",0.02 µg/mL
